# Laboratory results taken from EPA's ToxRefDB 2.
# How the values were obtained:
# dog [1] = settings: Subchronic oral toxicity in nonrodent, beagle, Feed, dose end: 13 week, group: systemic
# dog [2] = settings: Chronic toxicity, beagle, Oral, Feed, dose end: 52 week, group: systemic
# mouse [3] = settings: Subchronic oral toxicity in rodents, cd1, Feed, dose end: 13 week, group: systemic
# rat [4] = settings: Subchronic oral toxicity in rodents, sprague dawley, Feed, dose end: 90 day, group: systemic
# mouse [5] = settings: Carcinogenicity, cd1, Oral, Feed, dose end: 18 month, group: systemic
# mouse [6] = settings: Carcinogenicity, cd1, Oral, Feed, dose end: 18 month, group: systemic; remark: listed apart in the source
# rat [7] = settings: Prenatal developmental toxicity study, sprague dawley, Oral, Gavage/Intubation, dose end: 15 GD
# rat [8] = settings: Multigenerational reproductive toxicity study, sprague dawley, Oral, Feed, dose end: 2 generation
# rat [9] = settings: Combined chronic toxicity/carcinogenicity, sprague dawley, Oral, Feed, dose end: 24 month, group: systemic
# rat [10] = settings: Subchronic oral toxicity in rodents, wistar, Feed, dose end: 90 day, group: systemic, systemic / in life observation / body weight / body weight + systemic / in life observation / food consumption / food consumption + systemic…
# mouse [11] = settings: Prenatal developmental toxicity study, cd1, Oral, Gavage/Intubation, dose end: 14 GD
# rat [12] = settings: Subchronic oral toxicity in rodents, other, Feed, dose end: 90 day, group: systemic
# mouse [13] = settings: Subchronic oral toxicity in rodents, cd1, Feed, dose end: 90 day, group: systemic
# dog [14] = settings: Chronic toxicity; beagle; Oral; Capsule; dose end: 12 month; group: cholinesterase; cholinesterase / cholinesterase / cholinesterase / plasma cholinesterase (che)
# rat [15] = settings: Carcinogenicity; fischer; Oral; Water; dose end: 104 week; group: systemic; systemic / in life observation / water consumption / water consumption
# mouse [16] = settings: Multigenerational reproductive toxicity study, other, Oral, Feed, dose end: 1 generation
# dog [17] = settings: Subchronic oral toxicity in nonrodent, beagle, Feed, dose end: 13 week, group: systemic; remark: listed apart in the source
# [18] = systemic / in life observation / clinical signs / defecation (diarrhea)
# [19] = systemic / in life observation / clinical signs / defecation (diarrhea) + systemic / clinical chemistry / alpha-1 globulin / alpha-1 …
# [20] = systemic / in life observation / body weight / body weight gain
# [21] = systemic / in life observation / body weight / body weight gain + systemic / clinical chemistry / alkaline phosphatase (alp/alk) / alkaline …
# [22] = systemic / clinical chemistry / 5' nucleotidase / 5' nucleotidase + systemic / clinical chemistry / alkaline phosphatase (alp/alk) / …
# [23] = group: developmental, developmental / developmental malformation / kidney / dilated renal pelvis + developmental / developmental malformation / ureter / dilated
# [24] = group: maternal, systemic / in life observation / body weight / body weight gain + systemic / in life observation / food consumption / food consumption
# [25] = group: offspring, systemic / in life observation / body weight / offspring (pup) weight + systemic / in life observation / body weight / offspring (pup) …
# [26] = group: parental, systemic / in life observation / clinical signs / anogenital staining
# [27] = group: parental, systemic / in life observation / clinical signs / anogenital staining + systemic / in life observation / body weight / body weight + …
# [28] = systemic / in life observation / body weight / body weight + systemic / in life observation / body weight / body weight gain + systemic / …
# [29] = group: developmental, systemic / in life observation / body weight / offspring (pup) weight
# [30] = group: maternal, systemic / in life observation / mortality / mortality
# [31] = systemic / in life observation / food consumption / food consumption
# [32] = systemic / in life observation / food consumption / food consumption + systemic / in life observation / body weight / body weight + systemic…
# [33] = systemic / in life observation / body weight / body weight gain + systemic / organ weight / heart / relative to body weight + systemic / …
# [34] = group: offspring, systemic / in life observation / body weight / litter weight + systemic / in life observation / body weight / offspring (pup) weight + …
# [35] = group: reproductive, reproductive / reproductive performance / mating / mating + reproductive / reproductive performance / estrous cycle / length + reproductive…
# [36] = systemic / in life observation / body weight / body weight + systemic / in life observation / food consumption / food consumption + systemic…
structure (smiles),measurement,setting,value
N#Cc1c[nH]cc1-c1cccc2c1OC(F)(F)O2 [Fludioxonil],LEL,dog [1]; [18],50 mg/kg/day
same,LOAEL,dog [1]; [18],50 mg/kg/day
same,NEL,dog [1]; [19],5 mg/kg/day
same,NOAEL,dog [1]; [19],5 mg/kg/day
same,LEL,dog [2]; [20],35.5 mg/kg/day
same,LOAEL,dog [2]; [20],35.5 mg/kg/day
same,NEL,dog [2]; [21],3.3 mg/kg/day
same,NOAEL,dog [2]; [21],3.3 mg/kg/day
same,LOAEL,mouse [3]; [22],1050 mg/kg/day
same,NOAEL,mouse [3]; [22],445 mg/kg/day
same,LEL,mouse [3]; systemic / organ weight / liver / relative to body weight + systemic / pathology microscopic / liver / hypertrophy,559 mg/kg/day
same,NEL,mouse [3]; systemic / organ weight / liver / relative to body weight + systemic / pathology microscopic / liver / hypertrophy + systemic / clinical …,178 mg/kg/day
same,LOAEL,rat [4]; systemic / in life observation / body weight / body weight gain + systemic / pathology microscopic / kidney / nephropathy,428 mg/kg/day
same,NOAEL,rat [4]; systemic / in life observation / body weight / body weight gain + systemic / pathology microscopic / kidney / nephropathy + systemic / …,64 mg/kg/day
same,LEL,rat [4]; systemic / organ weight / thymus / relative to body weight,70 mg/kg/day
same,NEL,rat [4]; systemic / organ weight / thymus / relative to body weight + systemic / clinical chemistry / alkaline phosphatase (alp/alk) / alkaline …,7.1 mg/kg/day
same,NEL,mouse [5]; systemic / organ weight / heart / absolute + systemic / organ weight / kidney / absolute + systemic / organ weight / liver / relative to …,3.3 mg/kg/day
same,LOAEL,mouse [5]; systemic / pathology microscopic / kidney / nephropathy,590 mg/kg/day
same,NOAEL,mouse [5]; systemic / pathology microscopic / kidney / nephropathy + systemic / hematology / hematocrit (hct) / hematocrit (hct) + systemic / …,3.3 mg/kg/day
same,LEL,mouse [5]; systemic / pathology microscopic / kidney / nephropathy + systemic / hematology / hemoglobin (hgb) / hemoglobin (hgb) + systemic / …,590 mg/kg/day
same,LEL,mouse [6]; [20],1.1 mg/kg/day
same,NEL,mouse [6]; [20],< 1.1 mg/kg/day
same,NOAEL,mouse [6]; systemic / in life observation / body weight / body weight gain + systemic / in life observation / clinical signs / convulsions + systemic…,11.3 mg/kg/day
same,LOAEL,"mouse [6]; systemic / in life observation / clinical signs / convulsions + systemic / in life observation / clinical signs / urine, discoloration + …",112 mg/kg/day
same,LOAEL,rat [7]; [23],1000 mg/kg/day
same,NEL,rat [7]; [23],10 mg/kg/day
same,NOAEL,rat [7]; [23],100 mg/kg/day
same,LEL,"rat [7]; group: developmental, developmental / developmental malformation / ureter / dilated",100 mg/kg/day
same,LOAEL,"rat [7]; group: maternal, systemic / in life observation / body weight / body weight gain",1000 mg/kg/day
same,LEL,rat [7]; [24],1000 mg/kg/day
same,NEL,rat [7]; [24],100 mg/kg/day
same,NOAEL,rat [7]; [24],100 mg/kg/day
same,LOAEL,"rat [8]; group: offspring, systemic / in life observation / body weight / offspring (pup) weight",222 mg/kg/day
same,LEL,rat [8]; [25],222 mg/kg/day
same,NEL,rat [8]; [25],22.1 mg/kg/day
same,NOAEL,rat [8]; [25],22.1 mg/kg/day
same,NEL,rat [8]; [26],22.1 mg/kg/day
same,NOAEL,rat [8]; [26],22.1 mg/kg/day
same,LEL,rat [8]; [27],222 mg/kg/day
same,LOAEL,rat [8]; [27],222 mg/kg/day
same,LOAEL,rat [9]; [28],113 mg/kg/day
same,NEL,rat [9]; [28],3.7 mg/kg/day
same,NOAEL,rat [9]; [28],37 mg/kg/day
same,LEL,"rat [9]; systemic / in life observation / clinical signs / body surface staining + systemic / in life observation / clinical signs / feces, …",37 mg/kg/day
CCOCCOCCO [2-(2-Ethoxyethoxy)ethanol],LEL,rat [10],2500 mg/kg/day
same,LOAEL,rat [10],> 2500 mg/kg/day
same,NEL,rat [10],500 mg/kg/day
same,NOAEL,rat [10],≥ 2500 mg/kg/day
same,LEL,mouse [11]; [29],5500 mg/kg/day
same,LOAEL,mouse [11]; [29],> 5500 mg/kg/day
same,NEL,mouse [11]; [29],< 5500 mg/kg/day
same,NOAEL,mouse [11]; [29],≥ 5500 mg/kg/day
same,LEL,mouse [11]; [30],5500 mg/kg/day
same,LOAEL,mouse [11]; [30],> 5500 mg/kg/day
same,NEL,mouse [11]; [30],< 5500 mg/kg/day
same,NOAEL,mouse [11]; [30],≥ 5500 mg/kg/day
same,LEL,rat [12]; [31],250 mg/kg/day
same,NEL,rat [12]; [31],< 250 mg/kg/day
same,LOAEL,rat [12]; [32],> 2500 mg/kg/day
same,NOAEL,rat [12]; [32],≥ 2500 mg/kg/day
same,LOAEL,mouse [13]; [33],> 8100 mg/kg/day
same,NEL,mouse [13]; [33],900 mg/kg/day
same,NOAEL,mouse [13]; [33],≥ 8100 mg/kg/day
same,LEL,mouse [13]; systemic / in life observation / body weight / body weight gain + systemic / organ weight / kidney / relative to body weight,2700 mg/kg/day
CCOP(=S)(OCC)SCSC(C)(C)C [Terbufos],LEL,dog [14],0.015 mg/kg/day
same,LOAEL,dog [14],0.015 mg/kg/day
same,NEL,dog [14],< 0.015 mg/kg/day
same,NOAEL,dog [14],< 0.015 mg/kg/day
O=C(OC[C@H]1O[C@@H](OC(=O)c2cc(O)c(O)c(OC(=O)c3cc(O)c(O)c(O)c3)c2)[C@H](OC(=O)c2cc(O)c(O)c(OC(=O)c3cc(O)c(O)c(O)c3)c2)[C@@H](OC(=O)c2cc(O)c(O)c(OC(=O)c3cc(O)c(O)c(O)c3)c2)[C@@H]1OC(=O)c1cc(O)c(O)c(OC(=O)c2cc(O)c(O)c(O)c2)c1)c1cc(O)c(O)c(OC(=O)c2cc(O)c(O)c(O)c2)c1 [Tannic acid],LEL,rat [15],131 mg/kg/day
same,LOAEL,rat [15],> 243 mg/kg/day
same,NEL,rat [15],< 131 mg/kg/day
same,NOAEL,rat [15],≥ 243 mg/kg/day
same,LEL,mouse [16]; [34],12000 mg/kg/day
same,LOAEL,mouse [16]; [34],> 12000 mg/kg/day
same,NEL,mouse [16]; [34],< 12000 mg/kg/day
same,NOAEL,mouse [16]; [34],≥ 12000 mg/kg/day
same,LEL,mouse [16]; [35],12000 mg/kg/day
same,LOAEL,mouse [16]; [35],> 12000 mg/kg/day
same,NEL,mouse [16]; [35],< 12000 mg/kg/day
same,NOAEL,mouse [16]; [35],≥ 12000 mg/kg/day
Cn1sccc1=O [2-Methyl-3(2H)-isothiazolone],LOAEL,dog [17]; systemic / in life observation / body weight / body weight + systemic / in life observation / food consumption / food consumption,40.6 mg/kg/day
same,LEL,dog [17]; [36],40.6 mg/kg/day
same,NEL,dog [17]; [36],9.9 mg/kg/day
same,NOAEL,dog [17]; [36],9.9 mg/kg/day
